Results from patent US9840465B2 (priority 2013, dated 2017).
Where a name gives a salt, the structure may show the parent alone. Read-outs that look alike come from different tables or passages of the source.

How the values were obtained:
[1] = system: A2/Taiwan/1/64 (H2N2), M2 WT; experiment: microbe, parasite or virus in culture; type: cell-based; settings: read-out: EC50 A2/Taiwan/1/64 (H2N2)
[2] = system: A/Victoria/3/75 (H3N2), M2 WT; experiment: microbe, parasite or virus in culture; type: cell-based; settings: read-out: EC50 A/Victoria/3/75 (H3N2)

SMILES	EC50 ([1]; Influenza A virus, H2N2, MDCK) [µM]	EC50 ([2]; Influenza A virus, H3N2, MDCK) [µM]	EC50 [1] [µM]	EC50 [2] [µM]	also measured
CCCCCCC1(N)C2CC3CC(C2)CC1C3 (stereo not drawn) (as salt: fumarate) [Compound 101, 2-n-hexyl-tricyclo[3.3.1.1^3,7]decan-2-amine]					melting point: 225 °C
CCC1CCC2(N1)C1CC3CC(C1)CC2C3 (stereo not drawn) (as salt: fumarate) [Compound 347, 5-ethylspiro[pyrrolidine-2,2′-tricyclo[3.3.1.1^3,7]decane]]					melting point: 191 to 193 °C (dec.)
NC12CC3CC(CC(C3)C1)C2 [Amantadine (1), Amantadine, reference compound]	0.34	2.8			
CCCC1(N)C2CC3CC(C2)CC1C3 (stereo not drawn) [Compound 7]	< 0.24	23			
CCCCC1(N)C2CC3CC(C2)CC1C3 (stereo not drawn) [Compound 17, (1r,3r,5r,7r)-2-butyladamantan-2-amine]			1.5	4	
CC(C)CC1(N)C2CC3CC(C2)CC1C3 (stereo not drawn) [Compound 18, (1r,3r,5r,7r)-2-isobutyladamantan-2-amine]			0.4	13	
NC1(c2ccccc2)C2CC3CC(C2)CC1C3 (stereo not drawn) [Compound 19, (1r,3r,5r,7r)-2-phenyladamantan-2-amine]			0.2	8	
NC1(Cc2ccccc2)C2CC3CC(C2)CC1C3 (stereo not drawn) [Compound 20, (1r,3r,5r,7r)-2-benzyladamantan-2-amine]			0.2	18	
CCCCCCC1(N)C2CC3CC(C2)CC1C3 (stereo not drawn) [Compound 101, 2-n-hexyl-tricyclo[3.3.1.1^3,7]decan-2-amine]	1.5	1.1			microscopic evidence of cytotoxicity to MDCK cells (MDCK cells): No microscopic evidence of cytotoxicity
CC(C)(N)C12CC3CC(CC(C3)C1)C2 [Compound 259, 2-(adamantan-1-yl)propan-2-amine]	1.1	3.4			
CC(N)C12CC3CC(CC(C3)C1)C2 (stereo not drawn) [Rimantadine (2), Rimantadine, reference compound]	1.6	0.53			
